Usually inhibition stands for the change of the read-out against control, counted positive when it falls.

≈ marks a conversion by molar mass, not a printed value. Read-outs that look alike come from different tables or passages of the source.

From patent EP0171342A1, “Substituted 2-(1-amino-akylidenyl)1,3-indane diones, process for their preparation and their therapeutical use” (priority 1984, dated 1986) come the findings set out here.

The subject of series [1] is souris. Description: Acute toxicity (mortality, LD50) in mice. Type of series: in vivo. As to conditions: mouse.
For series [2], the system named is oedème induit par l'injection intraplantaire de carragénine chez le rat. Description: Anti-inflammatory activity: carrageenan paw oedema in rats. As to conditions: oral 1 h before carrageenan, measured 3 h after. The format is in vivo. How it is done: L'activité antiinflammatoire a été déterminée chez le rat par la mesure de l'inhibition de l'oedème induit par l'injection intraplantaire de 0,1 ml d'une suspension à 1% de carragénine chez le rat. Les produits à tester sont administrés par voie orale lh avant l'injection de carragénine et la mesure est réalisée 3h après cette injection. Les COR3789, COR3792, COR4003, COR4008 et COR4010 administrés à 10b mg/kg entrainent respectivement 43, 42, 41, 38 et 39% d'inhibition. Administré à 200 mg/kg, le COR3773 entraine 53% d'inhibition. L'aspirine administrée dans les mêmes conditions à 150 mg/kg entraine 40% d'inhibition de l'oedème.
For orientation: In the carrageenan paw model, swelling and tenderness develop within hours.

Series [3] deals with iléon de cobaye. Description: Spasmolytic activity: guinea pig ileum contractions induced by transmural stimulation. The settings on record: 2 microg/ml, oxygenated Krebs solution at 32°C; for inhibition at 2 µg/mL: read-out: inhibition de ces contractions. How it is done:
L'activité spasmolytique a été déterminée in vitro par la mesure de l'effet du produit à tester sur les contractions de l'iléon de cobaye induites par stimulation transmurale dans une solution de Krebs oxygénée à 32°C. Le COR4010 et le COR3773 utilisés à la concentration de 2 microg/ml entrainent 50% d'inhibition de ces contractions.

Series [4] has as its system poumon de cobaye isolé perfusé. Description: Bronchodilator activity: isolated perfused guinea pig lung contracted by methacholine. The settings on record: flow of Tyrode solution, lung contracted by 0,05 microg/ml methacholine; read-out: concentration qui augmente ce débit de 50%. An excerpt: L'activité bronchodilatatrice a été déterminée in vitro par la mesure du débit d'une solution de Tyrode à travers un poumon de cobaye isolé perfusé, contracté par l'addition au fluide de perfusion de 0,05 microg/ml de méthacholine. Les COR3760, COR3789, COR3792, COR4003, COR4008, COR4010 et COR4014 utilisés respectivement aux concentrations de 50, 50, 100, 10, 50, 50 et 10 microg/ml augmentent ce débit de 50%. L'aminophylline entraine cette même activité à la concentration de 100 microg/ml.

Series [5] has as its system strips de veines mésentériques porte de rats normotendus. Description: Calcium antagonist activity: spontaneous contractions of rat portal mesenteric vein strips. The settings on record: 10 microg/ml.
Series [6] has as its system segments d'iléon de cobaye isolés. In words: Anticholinergic activity: acetylcholine-induced contractions of isolated guinea pig ileum. As to conditions: Cavia porcellus; contractions induced by 0,1 microg/ml acetylcholine; read-out: concentration qui inhibe ces contractions de 80%. An excerpt:
L'activité anticholinergique a été appréciée par la mesure des contractions induites par 0,1 microg/ml d'acétylcholine sur des segments d'iléon de cobaye isolés. Les COR3760, COR3789, COR3792, COR4003, COR4008, COR4010, COR4014 utilisés respectivement aux concentrations de 50, 25, 25, 50, 25, 10, 25 microg/ml inhibent ces contractions de 80%.

In series [7] the test system is rat soumis à une surcharge hydrique. Description: Diuretic activity in rats given a water overload, oral. As to conditions: rat, water overload, oral; for response vs control in vivo at 20 mg/kg: read-out: facteur multipliant l'excrétion urinaire du sodium. The format is in vivo. As for the experimental part:
L'activité diurétique a été déterminée sur plusieurs modèles expérimentaux. Chez le rat soumis à une surcharge hydrique, administrés par voie orale à la dose de 20 mg/kg, le COR3760, le COR3789, le COR3792, le COR4002, le COR4003, le COR4009, le COR4010, le COR4012 et le COR4014 multiplient l'excrétion urinaire du sodium par respectivement un facteur 2,9 - 3,1 - 5,9 - 2,6 - 7,2 - 3,5 - 3,8 - 2,9 - 2,4. Administrés à la dose de 10 mg/kg, dans les mêmes conditions, les COR3760, COR3789, COR3792, COR4003 et COR4010 multiplient l'excrétion sodique par respectivement 2,3 - 2,9 - 2,8 - 2,4 et 2,5. La spironolactone multiplie quant à elle l'excrétion sodique d'un facteur 3,6 à la dose de 20 mg/kg. Administré à la dose de 5 mg/kg dans les mêmes conditions, le COR3792 multiplie l'excrétion sodique par 3,3. Administré par voie orale chez le rat ou la souris soumis à une surcharge saline, le COR3760 augmente l'excrétion urinaire volumétrique mesurée à la sixième heure de respectivement 49, 119 et 134% chez la souris et 28, 84 et 116% chez le rat après administration de 10, 20, et 40 mg/kg. Le COR3760 a été administré par voie orale au rat soumis à une surcharge hydrique et l'excrétion urinaire volumétrique, le sodium et le potassium excrétés ont été mesurés sur une période de 6 heures; ces paramètres ont varié de respectivement +17%, +102%, +165% à 10 mg/kg, +19%, +147%, +180% à 20 mg/kg et +36%, +415% et +239% à 40 mg/kg; le rapport Na/K passe de 0,56 chez les animaux témoins à 0,4 à 10 mg/kg, 0,49 à 20 mg/kg et 0, 8 à 40 mg/ kg. Au cours d'une seconde expérimentation, le COR3760 a entrainé des variations de +19%, +157%, +70% à 40 mg/kg, +19%, +319%, +90% à 60 mg/kg et +29%, +472% et +77% à 80 mg/kg; le rapport Na/K passe de 0,59 chez les animaux témoins à 0,88 à 40, 1,15 à 60 et 1,88 à 80 mg/kg.

Series [8] deals with oreillette gauche de cobaye. Description: Calcium antagonist activity: electrically stimulated guinea pig left atrium. As to conditions: 150 beats/min, low-calcium (0,6 mM) Tyrode solution; read-out: concentration qui inhibe de 50% l'augmentation de la force de contraction induite par l'addition de 0,6 mM de calcium. How it is done: L'activité anticalcique a été déterminée in vitro sur deux modèles expérimentaux.
Sur oreillette gauche de cobaye stimulée électriquement à 150 battements/mn dans une solution de Tyrode pauvre en calcium (0,6 mM), les COR3789, COR3792, COR4009, COR4010 et COR4011 employés respectivement à 25, 100, 50, 10 et 25 microg/ml inhibent de 50% l'augmentation de la force de contraction induite par l'addition de 0,6 mM de calcium.

Series [9] has as its system rat Wistar soumis à une surcharge saline. In words: Diuretic activity in selected Wistar rats given a saline overload (modified Wiebelhaus test). Type of series: in vivo. As for the experimental part:
L'activité diurétique des produits selon l'invention a été également déterminée chez le rat Wistar soumis à une surcharge saline selon une modification du test décrit par Wiebelhaus et coll., Fed. Proc., 1960, 19, 364, en procédant à une sélection des animaux. A la dose de 20 mg/kg, les COR4003, COR4008, COR4009, COR4010, COR4011, COR4012, COR4014, COR4016, COR4021, COR4025 augmentent l'excrétion urinaire volumétrique mesurée au bout de 6 heures de respectivement 56, 54, 65, 95, 73, 54, 33, 40, 99 et 92 %. L'excrétion urinaire du sodium augmente de respectivement 56, 24, 42, 59, 43, 33, 29, 43, 31, 83, 26, 99, 40 % toujours à cette dose pour les COR4003, COR4008, COR4009, COR4010, COR4011, COR4012, COR4014, COR4016, COR4017, COR4021, COR4023, COR4025 et COR4026. Le rapport Na/K demeure la plupart du temps inchangé. Testé dans les mêmes conditions le furosémide, administré à la dose de 20 mg/kg entraine 63% d'augmentation de l'excrétion urinaire volumétrique et 53% d'augmentation de l'excrétion urinaire du sodium.

Series [10] relates to souris. Description: Anticonvulsant activity: bicuculline-induced convulsions in mice. Type of series: in vivo. As to conditions: mouse, i.p., 100 mg/kg. How it is done:
L'activité anticonvulsivante est également déterminée dans le test des inhibitions des convulsions induites par la bicuculline. Des souris reçoivent par voie intrapéritonéale le produit à tester, puis 30 mn et 5 heures plus tard, deux injections séparées de 0,5 mg de bicuculline. […] Les résultats de ce test sont le reflet d'une activité gabaergique directe.

Where [11] appears, read: 6 h, read-out: augmentation de l'excrétion urinaire volumétrique mesurée au bout de 6 heures.
[12] abbreviates: read-out: augmentation de l'excrétion urinaire du sodium.

On to `CNC(C)=C1C(=O)c2ccc(Cl)cc2C1=O` [COR3773, Chloro-5 (méthylamino-1 éthylidène)-2 indanedione-1,3], for which the mortalité result in series [1] (intraperitoneal, 200 mg/kg) was “aucune mortalité”; in series [1] (oral, 300 mg/kg), “aucune mortalité”. The “inhibition de l'oedème” value in series [2] (200 mg/kg) is 53%. In series [3], the inhibition at 2 µg/mL came to 50%.
Regarding `CCNC(C)=C1C(=O)c2ccccc2C1=O` [COR3789, (Ethylamino-1 éthylidène)-2 indanedione-1,3], the mortalité result in series [1] (intraperitoneal, 200 mg/kg) is “aucune mortalité”; in series [1] (oral, 300 mg/kg), “aucune mortalité”. For the same compound, the EC50 in series [4] is 50 mg/L (≈ 232 µM). In addition, in series [5], the “inhibition de l'augmentation, induite par le calcium, des contractions spontanées” value is on record as “inhibent l'augmentation”. Also, the IC80 in series [6] is 25 mg/L (≈ 116 µM). Moreover, the “facteur multipliant l'excrétion sodique” value in series [7] (10 mg/kg) is on record as 2,9. Besides, in [7], the response vs control in vivo at 20 mg/kg was found to be 310%. The “inhibition de l'oedème” value in series [2] (dose 10b mg/kg [sic]) stood at 43%. Further, in series [8], the IC50 turned out to be 25 mg/L (≈ 116 µM).
Regarding `CC(NC(C)C)=C1C(=O)c2ccccc2C1=O` [COR3792, (Isopropylamino-1 éthylidène)-2 indanedione-1,3], the mortalité result in series [1] (intraperitoneal, 200 mg/kg) is given as “aucune mortalité”; in series [1] (oral, 300 mg/kg) it was “aucune mortalité”. Besides, the EC50 in series [4] was 100 mg/L (≈ 436 µM). In addition, in [6], the IC80 came out at 25 mg/L (≈ 109 µM). Further, the “facteur multipliant l'excrétion sodique” value is 3,3 in [7] (5 mg/kg) and 2,8 in series [7] (10 mg/kg). Moreover, in [7], the response vs control in vivo at 20 mg/kg was found to be 590%. For the same compound, in [2] (dose 10b mg/kg [sic]), the “inhibition de l'oedème” value was determined as 42%. In addition, the IC50 in series [8] amounted to 100 mg/L (≈ 436 µM).
Take `CC(NCC(C)C)=C1C(=O)c2ccccc2C1=O` [COR4008, (Isobutylamino-1 éthylidényl)-2 indanedione-1,3]: the mortalité entry in series [1] (intraperitoneal, 200 mg/kg) is on record as “aucune mortalité”; in series [1] (oral, 300 mg/kg), “aucune mortalité”. The values for the change in vivo at 20 mg/kg in series [9] (setting [11]) and in series [9] (setting [12]) were 54% and 24%, respectively. The EC50 in [4] came to 50 mg/L (≈ 206 µM). Also, the IC80 in [6] amounted to 25 mg/L (≈ 103 µM). Besides, the “inhibition de l'oedème” value in series [2] (dose 10b mg/kg [sic]) came to 38%.
For the compound `CCCCNC(C)=C1C(=O)c2ccccc2C1=O` [COR4010, (Butylamino-1 éthylidényl)-2 indanedione-1,3], the mortalité result in series [1] (intraperitoneal, 200 mg/kg) was “aucune mortalité”; in [1] (oral, 300 mg/kg), “aucune mortalité”. The results for the change in vivo at 20 mg/kg in series [9] (setting [11]) and in series [9] (setting [12]) were 95% and 59%, respectively. In addition, in [4], the EC50 was found to be 50 mg/L (≈ 206 µM). Moreover, the “inhibition de l'augmentation, induite par le calcium, des contractions spontanées” value in series [5] was “inhibent l'augmentation”. For the same compound, the IC80 in series [6] stood at 10 mg/L (≈ 41.1 µM). Further, the “facteur multipliant l'excrétion sodique” value in [7] (10 mg/kg) is recorded as 2,5. In addition, in series [7], the response vs control in vivo at 20 mg/kg came to 380%. For the same compound, the “inhibition de l'oedème” value in series [2] (dose 10b mg/kg [sic]) was 39%. The inhibition at 2 µg/mL in series [3] was 50%. The IC50 in [8] worked out at 10 mg/L (≈ 41.1 µM).
With `CC(NC1CC1)=C1C(=O)c2ccccc2C1=O` [COR4014, (Cyclopropylamino-1 éthylidényl)-2 indanedione-1,3], the mortalité entry is on record as “aucune mortalité” in series [1] (intraperitoneal, 200 mg/kg) and “aucune mortalité” in [1] (oral, 300 mg/kg). For the same compound, the results for the change in vivo at 20 mg/kg in [9] (setting [11]) and in [9] (setting [12]) were 33% and 29%, respectively. Moreover, in [4], the EC50 was found to be 10 mg/L (≈ 44 µM). In series [6], the IC80 stood at 25 mg/L (≈ 110 µM). The response vs control in vivo at 20 mg/kg in series [7] was determined as 240%.
In the case of `COc1ccc(Cc2nccc3cc(OC)c(OC)cc23)cc1OC` [papavérine, reference compound], in series [3], the “inhibition de ces contractions” value is “la même activité”.
As for `CCCC(CCC)C(=O)O` [valproate de sodium, reference compound], the entries for the “inhibition des convulsions induites par la bicuculline” value in series [10] (first bicuculline injection (30 min later)) and in series [10] (second bicuculline injection (5 hours later)) were “inhibe les convulsions induites par la première injection” and “sans inhiber celles induites par la deuxième”, respectively.
